# Assay results: PubChem BioAssay AID179 (DTP/NCI, 2004)
# The source made the active and inactive calls.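 Rule for the calls: active = compounds giving half or more protection of infected cells from virus-caused growth loss, again on retest; inactive = the rest.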
# Tested on: CEM cells HIV-1 protection, formazan growth assay
# Assay: NCI AIDS Antiviral Assay
# Conditions: for IC50: measured here: growth of uninfected CEM cells
# How it was run: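 CEM (human) cells, HIV-1 infected vs uninfected, 5-point dosing, formazan growth read-out. Retest threshold 50% protection.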
Structure (SMILES),EC50 [µM],IC50 [µM],outcome
O=C1NC(=O)/C(=C\c2cccc([N+](=O)[O-])c2)N1,> 200,158,
Nc1ccc(S(N)(=O)=O)cc1SSc1cc(S(N)(=O)=O)ccc1N,55,132,
CC(=O)Oc1cccc2c1C(=O)C(Br)(Br)CCC2,,,inactive
CCOc1ccc(NC(=O)C(=O)C(C(=O)c2ccc3ccccc3c2)C2OC(=O)c3ccccc32)cc1 (stereo not drawn),> 52.5,45.7,
CCCC(=N\N=C(N)N)/C(C)=N/N=C(N)N,> 79.4,> 79.4,
O=C1C2=C(c3ccccc31)C(c1cccc(Cl)c1)NC(=S)N2 (stereo not drawn),> 57.5,35.5,
NC(=O)c1nnsc1NN=O,> 200,> 200,
COc1cc2c3c(c1OC)C1(C=CC(=O)C=C1)CC3N(C(=O)OC(C)(C)C(Cl)(Cl)Cl)CC2 (stereo not drawn),,,inactive
CC1=C2[C@@H](c3ccccc3)C3C=CC2(C=C3C(F)(F)F)N(C(=O)NC2CCCCC2)C1=O (stereo partly drawn),> 16.2,> 16.2,
C=CCOCC1C2CCC3(OCCO3)C21 (stereo not drawn),> 200,148,
CC1C(=O)C(C)C(c2ccccc2)NC1c1ccccc1 (stereo not drawn),> 67.6,> 67.6,
CC1(C)OC(=O)C2(O1)C(=O)C1CCCCC12 (stereo not drawn),> 200,> 200,
COC1=CC(=O)c2ccccc2C1(C)C1=NC(C)(C)CO1 (stereo not drawn),> 631,> 631,
NC(=S)N/N=C/c1cc(CN2CCOCC2)c(N)cn1,> 200,10.5,
CCCCCCCn1ccnc1NCCCCCCCCCCNc1nccn1CCCCCCC,> 37.2,10,
Cc1ccc(S(=O)(=O)SC(S(=O)(=O)c2ccc(C)cc2)S(=O)(=O)c2ccc(C)cc2)cc1,> 355,148,
CC1=NN(c2nc(N)nc(CSc3cc(Cl)c(C)cc3S(N)(=O)=O)n2)C(C)(C)C1,,,inactive
CCOC(=O)C1(c2ccccc2)CCN(CC(=O)c2ccccc2)CC1,> 102,56.2,
O=C(O)CCCc1ccc2c(c1)CC1(C2)Cc2cc3c(cc2C1)CCCC3,> 200,36.3,
Cc1ccc(-c2n[nH]c(Cc3nc(-c4ccc(C)cc4)n[nH]3)n2)cc1,> 200,> 200,
O=C(NC1C/C(=N/O)c2c(Br)sc(Br)c21)C(F)(F)F (stereo not drawn),> 200,53.7,
CCCCCNc1nonc1N,> 200,> 200,

Structure (SMILES),EC50 [µM],IC50 [µM],outcome
C1OC1CN1CCC(C2CCN(CC3CO3)CC2)CC1 (stereo not drawn),> 200,0.269,
CC(=O)c1ccc2c3ccccc3c3cccc4sc1c2c43,> 22.4,> 22.4,
O=[N+]([O-])/C=C/COCc1cc2c(cc1Br)OCO2,> 200,9.33,
CCN(CC)CCCn1c(=O)c2ccccc2n2c3c(=O)n(C)c(=O)n(C)c3nc12,> 200,1.05,
COC(=O)c1cc(C(=CCCN=[N+]=[N-])c2cc(Cl)c(OC)c(C(=O)OC)c2)cc(Cl)c1OC,33.1,34.7,
CN(C)c1ccc(C(C2=C(O)c3ccccc3C(=O)C2=O)C2=C(O)c3ccccc3C(=O)C2=O)cc1,> 200,30.9,
CC12CCC(=O)C=C1CCC1C2CCC2(C)C1CCC2(O)C1(O)CCC2C3CCC4=CC(=O)CCC4(C)C3CCC21C (stereo not drawn),> 100,55,
CCc1cc(-c2cccc3ccccc23)c(C#N)c(=S)[nH]1,> 200,32.4,
COc1ccc(C2CCC(=O)CC2(O)C(=O)O)cc1 (stereo not drawn),> 251,> 251,
CSC1=Nc2ccccc2N(C)c2c1c(-c1ccccc1)nn2C,> 200,43.7,
O=c1c2cc(S(=O)(=O)Nc3ccccc3)ccc2ncn1NS(=O)(=O)c1ccccc1,> 100,58.9,
COc1cc2c(cc1C)n(O)c(C)c(C(=O)C/C(=N/NC(=O)C[N+](C)(C)C)C(=O)Nc1cccc(Cl)c1C)[n+]2=O,> 12,> 12,
O=C1NN=C2CCCCCCC12 (stereo not drawn),> 302,> 302,
Cn1c(=O)cc(Nc2ccc(N)cc2)[nH]c1=O,> 200,> 200,
O=c1c(SCc2ccc(Cl)cc2Cl)c(SCc2ccc(Cl)cc2Cl)cnn1-c1ccccc1,> 46.8,> 46.8,
CC(C)(C)c1ccccc1NS(=O)(=O)c1ccccc1,,,inactive
Cc1ccc(/C=N\NC(=O)c2ccncc2)s1,> 200,117,
C=CC(=O)N1CN(C(=O)C=C)CN(C(=O)C=C)C1,> 200,1.15,
COP1(=O)OCc2cnccc2O1 (stereo not drawn),> 200,> 200,
O=c1c2cccnc2cc(-c2ccccc2)n1CCO,> 200,> 200,
COC(=O)CC1c2ccccc2N2C(=O)Cc3c([nH]c4ccccc34)C12 (stereo not drawn),> 200,191,
Cc1nc2c(=S)nc[nH]c2n1Nc1ccccc1,> 200,72.4,

Structure (SMILES),EC50 [µM],IC50 [µM],outcome
C/C(=N\NC(=S)NCCCNC(=S)N/N=C(\C)c1ccccn1)c1ccccn1,> 200,3.16,
COC(=O)C(NC(=O)CSc1nnc(COc2ccc(Cl)cc2)n1-c1ccccc1)C(C)C (stereo not drawn),> 200,12,
O=C1c2cc([N+](=O)[O-])cnc2S(=O)(=O)N1c1ccc(Oc2ccccc2)cc1,> 200,105,
NC(N)=NS(=O)(=O)c1ccc(NC(=O)c2cccc3c(N)c4ccccc4nc23)cc1,> 51.3,33.9,
CCOC(=O)C(=Cn1c(=S)[nH]c2cc(C)ccc21)C(=O)OCC,> 200,> 200,
CC(C)(C)OC(=O)NCC(=O)NC1CC=CCC1NC(=O)CNC(=O)OC(C)(C)C (stereo not drawn),> 200,> 200,
O=S(=O)(c1ccccc1)N1CC2CC(Br)C(Br)CC21 (stereo not drawn),> 45.7,> 45.7,
Cc1ccnc2c1C(=O)C1=C(OC(C)(C)CC1O)C2=O (stereo not drawn),> 200,10.7,
CC1=CC23C(COC(=O)C24CO4)C(C(=O)O)=CC3C1C (stereo not drawn) (tested in a mixture with another compound),> 200,47.9,
CC(=O)[O-].CC(=O)[O-].O=C(N/N=C/c1cc(Cl)cc(Cl)c1[OH2+])c1ccncc1.[Co+2],,,inactive
CN(C)C(=S)SSC(C)(C)C,> 200,8.32,
CCCCCCCCOC1N(C2CC(N=[N+]=[N-])C(CO)O2)C(=O)NC(=O)[C@]1(C)Br (stereo partly drawn),0.427,12.6,
CC(=O)Nc1ccc2nc(-c3ccccn3)c(-c3ccccn3)nc2c1,27.5,> 200,
Nc1nc(N)c2cc(Cl)ccc2n1,> 1290,26.9,
CC(CN(C)C)OC(=O)c1cc2ccccc2n1Cc1ccccc1 (stereo not drawn),> 200,87.1,
C[n+]1c2ccccc2c(CNC(CS)C(=O)O)c2ccccc21 (stereo not drawn),,,inactive
CC(=O)NS(=O)(=O)c1ccc(NC(=O)c2ccccc2SC(=O)c2ccccc2)cc1,15.1,117,
CC(=O)O[C@@H]1C(O)C=C2c3cc4c(c(O)c3C(=O)NC2[C@@H]1OC(C)=O)OCO4 (stereo partly drawn),,,inactive
O=c1[nH]c2ccccc2c(O)c1/C=N/C(=S)NCc1ccccc1,> 200,> 200,
COc1ccc(N=Nc2ccc3oc(=O)c(C(=O)Nc4ccccc4)cc3c2)cc1,> 200,33.1,
CC1(C)OC2C(O)CN3CCS[C@H]3C2O1 (stereo partly drawn),> 200,> 200,
